From patent EP3970691A1, “SLIMMING COSMETIC COMPOSITIONS CONTAINING ONE OR MORE LIMONOIDS” (C.F.E.B. Sisley, priority 2020, dated 2022) come the findings set out here.

Bounds are passed on as bounds.

Holding throughout (type): cell-based
The target in data set [1] is T1, CERT (Mus musculus, UniProt Q9EQG9).
T1 construct: endogenous in cells; host or cells: 3T3-L1
T1 sequence (Q9EQG9 1-624): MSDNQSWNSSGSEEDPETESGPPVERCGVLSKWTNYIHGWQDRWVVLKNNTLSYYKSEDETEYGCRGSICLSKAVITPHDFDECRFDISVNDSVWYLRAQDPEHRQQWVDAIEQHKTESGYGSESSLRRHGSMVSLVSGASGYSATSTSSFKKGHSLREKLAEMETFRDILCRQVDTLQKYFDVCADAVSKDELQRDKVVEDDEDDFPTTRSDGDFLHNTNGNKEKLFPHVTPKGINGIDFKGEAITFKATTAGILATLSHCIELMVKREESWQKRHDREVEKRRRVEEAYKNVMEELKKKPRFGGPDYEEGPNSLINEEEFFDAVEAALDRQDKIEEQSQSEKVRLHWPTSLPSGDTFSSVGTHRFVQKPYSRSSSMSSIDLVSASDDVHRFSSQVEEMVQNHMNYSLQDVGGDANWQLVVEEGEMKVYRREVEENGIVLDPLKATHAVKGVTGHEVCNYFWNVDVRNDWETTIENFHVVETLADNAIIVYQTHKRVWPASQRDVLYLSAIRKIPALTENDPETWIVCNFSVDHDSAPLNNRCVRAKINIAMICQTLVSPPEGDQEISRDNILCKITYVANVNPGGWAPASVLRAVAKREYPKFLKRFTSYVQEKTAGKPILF
Description: Dose-response on basal 3T3-L1: total ceramide assay (DAG kinase) as readout of CERT inhibition. The conditions noted are these: 3T3-L1 in basal state, total ceramides; data not shown. An excerpt: (§1) Les taux de céramides dans les extraits de lipides cellulaires sont mesurés par la méthode enzymatique de la DAG kinase. Le principe de ce dosage est de phosphoryler les céramides avec de l'ATP radiomarqué grâce à l'action de cette enzyme, puis de quantifier les radiations obtenues pour chaque échantillons, permettant ainsi de doser la quantité totale de céramides présents initialement dans les échantillons. Les résultats sont exprimés en fmol de céramides et normalisés par rapport à la quantité de phospholipides totaux dans les échantillons, exprimée en nmol.
(§2) La quantité de phospholipides totaux contenue dans les extraits cellulaires est dosée afin de normaliser les céramides présents dans chaque échantillon. La quantité de phospholipides totaux est mesurée par spectrophotométrie : l'absorbance est mesurée à 660 nm, puis calculée grâce à une gamme de sodium phosphate dibasique (Sigma-Aldrich) permettant de déterminer la concentration en phosphates dans chaque échantillon.

The subject of data set [2] is 3T3-L1. As to the kind of experiment: RT-qPCR expression of adipogenesis and adipocyte function genes during 3T3-L1 differentiation. As for the experimental part:
(§3) Le protocole de différenciation se déroule en deux étapes : une phase d'induction (2 jours) suivie d'une étape d'accumulation (2 à 5 jours). • Milieu d'induction : Il s'agit du milieu d'entretien des 3T3-L1 supplémenté de 1µM d'Insuline; 1.25µM de Dexaméthasone et 250µM d' IBMX (3-isobutyl-1-methylxanthine) • Cocktail d'accumulation : Ce milieu est composé du milieu d'entretien des 3T3-L1 supplémenté de 1µM d'Insuline ;
(§4) L'extraction des ARNm à partir de ces échantillons est réalisée avec un kit RNeasy® Mini Kit, commercialisé par QIAGEN®.
(§5) La rétrotranscription des ARN extraits des échantillons en ADNc est réalisée selon le protocole suivant : les ARN sont incubés à 50°C pendant 30 minutes afin de réaliser la rétro-transcription des ARN en présence de la réversetranscriptase M-MLV; puis à 95°C pendant 15 minutes afin d'inhiber l'activité de la rétrotranscriptase, de dégrader les amorces d'ARN et d'activer la polymérase.
(§6) La PCR quantitative est réalisée dans Le LightCylcer 1.5 (Roche) grâce au kit FastStart DNA Master plus SYBR Green I (Roche).
(§7) L'inhibition de CERT, et donc de la synthèse de SM, par le traitement à la GED ayant été validée, la question a donc ensuite été de savoir si cela avait un effet sur la capacité de différenciation des cellules. Le même protocole de différenciation a donc été appliqué, associé ou non à un traitement à la Ged (figure 2A), et les niveaux d'expression de gènes impliqués d'une part dans l'adipogenèse et d'autre part dans la fonction adipocytaire ont été mesurés. Par ailleurs, les analyses transcriptomiques ont été combinées avec une analyse phénotypique des échantillons : un marquage à l'huile rouge, qui, en marquant les lipides, permet de visualiser les gouttelettes lipidiques dans les cellules et donc de savoir si celles-ci sont différenciées et fonctionnelles.
Les niveaux d'expression des gènes Pref1, comme marqueur pré-adipocytaire, ainsi que de PPARγ, C/EBPα et C/EBPδ qui sont des FT clés dans l'adipogenèse, ont été mesurés.
On the technique in general: Quantitative PCR measures a nucleic acid by following its amplification.

Data set [3] concerns the target T1, CERT. As to the kind of experiment: Total ceramides and sphingomyelins during 3T3-L1 differentiation under gedunin treatment. As for the experimental part:
as §3
Les lipides ont été extraits et les échantillons préparés pour la chromatographie liquide couplée à la spectrométrie de masse (cf. Bligh E.G. et al, 1959).
as §1, §2
Afin de déterminer si la GED est capable d'inhiber le transport des céramides du RE vers le Golgi au cours du processus de différenciation des 3T3-L1, ces cellules ont été mises en contact de la GED au cours des deux phases du protocole (Schéma 3). Puis les céramides totaux et les sphingomyélines ont été quantifiés (figure 2A).

Another data set deals with pré-adipocytes humains. As to the kind of experiment: RT-qPCR gene expression in differentiating human pre-adipocytes. The conditions noted are these: treated during induction phase. The procedure:
Comme pour les 3T3-L1, le protocole de différenciation des PrAH se déroule en deux étapes : les cellules sont exposées à milieu d'induction puis à un milieu d'accumulation, ces deux phases durant 10 jours chacune.
Le milieu d'induction est composé du milieu d'entretien supplémenté de l'insuline à 1µM, de l'IBMX à 500µM, de la dexaméthasone à 1µM ainsi que de l'indométhacine à 200µM. Le milieu d'accumulation est quant à lui composé du milieu d'entretien auquel on ajoute de l'insuline à 1µM.
as §4, §5, §6
Dans un premier temps, les cellules ont donc été traitées avec de la Gédunine durant la phase d'induction. Le niveau d'expression de gènes impliqués dans l'adipogenèse et dans la fonction adipocytaire a été évalué. Dans un deuxième temps, les cellules ont été colorées avec de l'Huile Rouge afin de visualiser leur capacité à stocker des lipides au sein de leurs gouttelettes lipidiques.

The subject of data set [4] is 3T3-L1. As to the kind of experiment: Oil Red staining of lipid droplets in 3T3-L1 (microscopy). The conditions noted are these: AdJ7, 10µM in induction (GED1) or accumulation (GED2) phase.
Text: Afin de visualiser les gouttelettes lipidiques contenues dans les adipocytes matures et donc de quantifier le niveau de différenciation des cellules, les lipides sont marqués avec de l'huile rouge. L'huile rouge est un colorant liposoluble qui colore les lipides neutres et donc les triglycérides stockés dans les gouttelettes.
as §7

Data set [5] concerns 3T3-L1. Description: Oil Red O neutral lipid quantification (spectrophotometry) in differentiating 3T3-L1. As to conditions: for quantité de lipides: vs control. An excerpt: Brièvement : Des cellules 3T3-L1 ont été ensemencés dans leur milieu d'entretien. A confluence, les cellules ont été mises au contact des produits à tester dans un milieu permettant la différentiation des pré-adipocytes en adipocytes via la présence d'un cocktail d'induction. A l'issue du contact, les lipides neutres stockés dans les gouttelettes lipidiques des adipocytes ont été marqués par la coloration Huile Rouge O. Les lipides neutres ont été extraits (extraction à l'isopropanol) et dosés par spectrophotométrie. Les densités optiques obtenues sont proportionnelles à la quantité de lipides.

[6] abbreviates: GED1 and GED2, stage AdJ7, vs CTRL.

As for `CC(=O)O[C@@H]1C[C@H]2C(C)(C)C(=O)C=C[C@]2(C)[C@H]2CC[C@@]3(C)[C@H](c4ccoc4)OC(=O)[C@H]4O[C@]43[C@@]21C` [Gédunine, gédunine], at CERT [1], the “dose de GED à partir de laquelle les céramides commencent à s'accumuler” value is given as ≥ 10 µM. Moreover, the “expression de PPARγ” value is listed as “diminution drastique de l'induction de l'expression de PPARγ” with 3T3-L1 [2] (10µM in accumulation phase); “diminution de cette induction de l'expression de PPARγ” with 3T3-L1 [2] (10µM in induction phase, stages AdJ2 and AdJ7). Moreover, the “expression de CD36, FAS, LPL et adiponectine” value with 3T3-L1 [2] (10µM in induction or accumulation phase, stages AdJ2 and AdJ7) is “diminue l'induction de l'expression de ces 4 gènes”; in the data set with 3T3-L1 [2] (AdJ7 GED2 (10µM in accumulation phase)) it was “diminution drastique”. Also, the “expression de C/EBPδ” value in the data set on 3T3-L1 [2] (10µM, stage AdJ2) is given as “semble diminuer, toutefois non-significativement”. Moreover, the “expression de Pref1” value is reported as “diminue de la même manière que chez les CTRL” in the data set on 3T3-L1 [2] (GED1 (10µM in induction phase), stage AdJ2); “n'est plus réprimé” in the data set on 3T3-L1 [2] (GED1 (10µM in induction phase), stage AdJ7); “identique à celle des CTRL” in the data set with 3T3-L1 [2] (GED2 (10µM in accumulation phase), stage AdJ7). Also, in the data set on 3T3-L1 [2] (setting [6]), the “expression de C/EBPα” value is listed as “diminuée”. The “niveau d'expression de C/EBPδ” value in the data set with 3T3-L1 [2] (setting [6]) is recorded as “significativement augmenté”. In addition, the céramides totaux result on CERT [3] (3T3-L1, 10µM in induction phase, then control accumulation medium without GED) is listed as “ne présentent pas d'accumulation des céramides”; at CERT [3] (3T3-L1, 10µM, AdJ2 treated in induction phase and AdJ7 treated in accumulation phase, vs control), “accumulation des céramides significative”. Also, on CERT [3] (3T3-L1, 10µM, after 5 days of accumulation, treatment in first or second step), the “accumulation de SM” value was “diminuer significativement l'accumulation de SM”. The “quantité de SM” value on CERT [3] (3T3-L1, 10µM, early stage, just before accumulation step) is “légère diminution de la quantité de SM, toutefois non significative”. In addition, in the data set with pré-adipocytes humains (CTRL vs GED), the “expression du marqueur pré-adipocytaire Pref1” value is “aucune différence significative”. For the same molecule, in the data set with pré-adipocytes humains (vs CTRL), the “expressions de AdipoQ, FAS et LPL” value was “diminution des expressions de AdipoQ, FAS et LPL”. Further, the “induction de l'expression de PPARγ” value in the data set with pré-adipocytes humains (vs CTRL) was “fortement diminuée”. The “marquage des lipides neutres par l'huile rouge” value in the data set on 3T3-L1 [4] was “ne sont plus marquées”.

Regarding `CC1(C)O[C@H]2CC(=O)OC[C@]23[C@H]2CC[C@@]4(C)[C@H](c5ccoc5)OC(=O)[C@H]5O[C@]54[C@]2(C)C(=O)C[C@@H]13` [Limonine, limonine], the “% variation versus contrôle” value was -10% in the data set with 3T3-L1 [5] (Limonine 10µM) and -16,5% in the data set with 3T3-L1 [5] (Limonine 2OµM). The entries for the “Moyenne ± écart type (Densité optique à 490nm)” value with 3T3-L1 [5] (Limonine 10µM) and in the data set on 3T3-L1 [5] (Limonine 2OµM) were 0,492 ± 0,061 and 0,455 ± 0,037, respectively. Further, in the data set on 3T3-L1 [5] (limonin experiment, tested concentrations (10 and 20 µM)), the cytotoxicité entry is “Aucune cytotoxicité”. Further, the quantité de lipides entry with 3T3-L1 [5] (limonin experiment) and with 3T3-L1 [5] (mandarin extract experiment) was “baisse dose dépendante de la quantité de lipides” in each case.
